From ChEMBL document CHEMBL3046813, “Novel tetranortriterpenoid derivatives from Munronia henryi” (2003)

Legend:
[1] = test system: Pieris brassicae; test: Antifeedant activity against Pieris brassicae third-instar larvae reared on compound pre-treated Brassica oleracea L. leaf disks assessed as insect mortality at 1000 ppm measured after 6 days by conventional leaf disk method; assay type: functional; conditions: foliar
[2] = test system: Pieris brassicae; test: Antifeedant activity against Pieris brassicae third-instar larvae reared on compound pre-treated Brassica oleracea L. leaf disks assessed antifeeding rate at 1000 ppm measured after 48 hr by conventional leaf disk method; assay type: functional

| SMILES | mortality at 1000 ppm [1] [%] | AFI [2] [%] |
| --- | --- | --- |
| C=C1[C@@H]2[C@@H](OC(=O)C=C[C@@]2(C)[C@H]2CC(=O)OC2(C)C)[C@H](OC(C)=O)[C@@]2(C)[C@H](C3=CC(O)OC3=O)C[C@H]3O[C@]132 (some centres undefined) [MUNRONIN A] | 20 | 0 |
| C#C[C@@H]1C[C@H]2O[C@]23C(=C)[C@@H]2[C@@H](OC(=O)C=C[C@@]2(C)[C@H]2CC(=O)OC2(C)C)[C@H](OC(C)=O)[C@@]13C [MUNRONIN E] | 10 | 37.1 |
| C=C1[C@@H]2[C@@H](OC(=O)C=C[C@@]2(C)[C@H]2CC(=O)OC2(C)C)[C@H](OC(C)=O)[C@@]2(C)[C@H](C3=CC(=O)OC3O)C[C@H]3O[C@]132 (some centres undefined) [MUNRONIN B] | 10 | 20.9 |
| C=C1[C@@H]2[C@@H](OC(=O)C=C[C@@]2(C)[C@H]2CC(=O)OC2(C)C)[C@H](OC(C)=O)[C@@]2(C)[C@H](C(=O)O)C[C@H]3O[C@]132 [MUNRONIN F] | 0 | 0 |
| C/C=C(\C)C(=O)O[C@H]1C[C@@H](OC(C)=O)[C@@]2(C(=O)OC)CO[C@H]3[C@@H](O)[C@@](C)([C@]45O[C@@]4(C)[C@@H]4C[C@H]5O[C@@H]5OC=C[C@@]54O)[C@H]4[C@]1(CO[C@]4(O)C(=O)OC)[C@@H]32 [AZADIRACHTIN A] | 100 | 99.5 |
| C=C1[C@@H]2[C@@H](OC(=O)C=C[C@@]2(C)[C@H]2CC(=O)OC2(C)C)[C@H](OC(C)=O)[C@@]2(C)[C@H](C3=CCOC3=O)C[C@H]3O[C@]132 [MUNRONIN C] | 10 | 31 |
| C=C1[C@@H]2[C@@H](OC(=O)C=C[C@@]2(C)[C@H]2CC(=O)OC2(C)C)[C@H](OC(C)=O)[C@@]2(C)[C@H](C3=CCNC3=O)C[C@H]3O[C@]132 [MUNRONIN D] | 10 | 28 |
